In brackets after ≈: the same amount, converted by molar mass.
Tests used:
Assay in all cases: MIC on standard strains, standard method of Japan Society of Chemotherapy
Type in all cases: cell-based
C. freundii ATCC 8090 = conditions: Citrobacter freundii, ATCC8090, C. freundii ATCC 8090; read-out: MIC
Protocol: (§1) Antimicrobial activity of the compounds of the present invention were measured using CTM (cefotiam) and FMOX (flomoxef) as control drugs in accordance with the standard method of Japan Society of Chemotherapy. Of the 25 standard strains used in this test, Staphylococcus aureus 167 and Staphylococcus aureus 195 belong to MRSA.
(§2) In these tables, drugs tested are shown by the corresponding examples in which they were synthesized.

K. pneuminiae IFO 3317 = test system: K. pneuminiae IFO 3317
Protocol: as §1, §2

M. luteus ATCC 9341 = conditions: Micrococcus luteus, ATCC9341
Protocol: as §1, §2

S. aureus Smith = conditions: Staphylococcus aureus, read-out: MIC
Protocol: as §1, §2

A. faecalis ATCC 3750 = conditions: Alcaligenes faecalis, ATCC3750, A. faecalis ATCC 3750; read-out: MIC
Protocol: as §1, §2

E. cloacae ATCC 13407 = conditions: Enterobacter cloacae, ATCC13407, E. cloacae ATCC 13407; read-out: MIC
Protocol: as §1, §2

E. coli NHIJ JC-2 = conditions: Escherichia coli, NHIJJC2
Protocol: as §1, §2

P. aeruginosa NCTC 10490 = conditions: Pseudomonas aeruginosa, NCTC10490, P. aeruginosa NCTC 10490; read-out: MIC
Protocol: as §1, §2

K. pneuminiae No. 42 = test system: K. pneuminiae No. 42
Protocol: as §1, §2

E. coli CSH2(RK1) = conditions: Escherichia coli
Protocol: as §1, §2

S. epidemidis IAM 1296 = test system: S. epidemidis IAM 1296
Protocol: as §1, §2

E. cloacae Nek39 = conditions: Enterobacter cloacae, NEK39, E. cloacae Nek39; read-out: MIC
Protocol: as §1, §2

S. marcescens IAM 1184 = conditions: Serratia marcescens, IAM1184, S. marcescens IAM 1184; read-out: MIC
Protocol: as §1, §2

M. morganii IFO 3848 = conditions: Morganella morganii, IFO3848
Protocol: as §1, §2

P. cepacia = conditions: Burkholderia cepacia, read-out: MIC
Protocol: as §1, §2

S. aureus 195 = conditions: Staphylococcus aureus; S. aureus 195 (MRSA)
Protocol: as §1, §2

S. marcescens No. 16-2 = conditions: Serratia marcescens, NO.162
Protocol: as §1, §2

S. aureus 209p JC-1 = conditions: Staphylococcus aureus, 209P, read-out: MIC
Protocol: as §1, §2

E. coli CSH2(RE45) = conditions: Escherichia coli
Protocol: as §1, §2

P. mirabilis IFO 3849 = conditions: Proteus mirabilis, IFO3849, P. mirabilis IFO 3849; read-out: MIC
Protocol: as §1, §2

P. aeruginosa AKR17 = conditions: Pseudomonas aeruginosa
Protocol: as §1, §2

S. aureus 167 = conditions: Staphylococcus aureus; S. aureus 167 (MRSA)
Protocol: as §1, §2

B. subtilis ATCC 6633 = conditions: Bacillus subtilis, ATCC6633, B. subtilis ATCC 6633; read-out: MIC
Protocol: as §1, §2

P. vulugaris OX-19 = test system: P. vulugaris OX-19
Protocol: as §1, §2

A. calcoaceticos T59 = conditions: read-out: MIC
Protocol: as §1, §2

SMILES	MIC (C. freundii ATCC 8090)	MIC (K. pneuminiae IFO 3317)	MIC (M. luteus ATCC 9341)	MIC (S. aureus Smith)	MIC (A. faecalis ATCC 3750)	MIC (E. cloacae ATCC 13407)	MIC (E. coli NHIJ JC-2)	MIC (P. aeruginosa NCTC 10490)	MIC (K. pneuminiae No. 42)	MIC (E. coli CSH2(RK1))	MIC (S. epidemidis IAM 1296)	MIC (E. cloacae Nek39)	MIC (S. marcescens IAM 1184)	MIC (M. morganii IFO 3848)	MIC (P. cepacia)	MIC (S. aureus 195)	MIC (S. marcescens No. 16-2)	MIC (S. aureus 209p JC-1)	MIC (E. coli CSH2(RE45))	MIC (P. mirabilis IFO 3849)	also measured
NC(=O)Cc1ccc[n+](CC2=C(C(=O)[O-])N3C(=O)[C@@H](NC(=O)/C(=N\O)c4nsc(N)n4)[C@H]3SC2)c1 [Ex. 1, 7β-[2-(5-amino-1,2,4-thiadiazol-3-yl)-2-syn-hydroxyiminoacetamido]-3-(3-carbamoylmethylpyridinio)methyl-3-cephem-4-carboxylate]	1.56 µg/mL (≈ 3.01 µM)	0.78 µg/mL (≈ 1.5 µM)	0.2 µg/mL (≈ 0.386 µM)	1.56 µg/mL (≈ 3.01 µM)	6.25 µg/mL (≈ 12.1 µM)	3.13 µg/mL (≈ 6.04 µM)	1.56 µg/mL (≈ 3.01 µM)	0.78 µg/mL (≈ 1.5 µM)	1.56 µg/mL (≈ 3.01 µM)	3.13 µg/mL (≈ 6.04 µM)	0.39 µg/mL (≈ 0.752 µM)	100 µg/mL (≈ 193 µM)	0.78 µg/mL (≈ 1.5 µM)	1.56 µg/mL (≈ 3.01 µM)	> 100 µg/mL	12.5 µg/mL (≈ 24.1 µM)	> 100 µg/mL	0.78 µg/mL (≈ 1.5 µM)	3.13 µg/mL (≈ 6.04 µM)	1.56 µg/mL (≈ 3.01 µM)	MIC (P. aeruginosa AKR17): > 100 µg/mL; MIC (S. aureus 167): 12.5 µg/mL (≈ 24.1 µM); MIC (B. subtilis ATCC 6633): 0.39 µg/mL (≈ 0.752 µM); MIC (P. vulugaris OX-19): 3.13 µg/mL (≈ 6.04 µM); MIC (A. calcoaceticos T59): 3.13 µg/mL (≈ 6.04 µM)
Nc1nc(/C(=N/O)C(=O)N[C@@H]2C(=O)N3C(C(=O)[O-])=C(C[n+]4cccc(-c5cscn5)c4)CS[C@H]23)cs1 [Ex. 9, 7β-[2-(2-aminothiazol-4-yl)-2-syn-hydroxyiminoacetamido]-3-[3-(thiazol-4-yl)pyridinio]methyl-3-cephem-4-carboxylate iodide]	0.2 µg/mL	0.2 µg/mL	0.05 µg/mL	0.2 µg/mL	3.13 µg/mL	1.56 µg/mL	0.2 µg/mL	3.13 µg/mL	0.39 µg/mL	0.39 µg/mL	0.05 µg/mL	50 µg/mL	0.39 µg/mL	0.1 µg/mL	> 100 µg/mL	1.56 µg/mL	50 µg/mL	0.1 µg/mL	0.39 µg/mL	0.39 µg/mL	MIC (P. aeruginosa AKR17): > 100 µg/mL; MIC (S. aureus 167): 6.25 µg/mL; MIC (B. subtilis ATCC 6633): 0.2 µg/mL; MIC (P. vulugaris OX-19): 0.39 µg/mL; MIC (A. calcoaceticos T59): 12.5 µg/mL
Nc1nc(/C(=N/O)C(=O)N[C@@H]2C(=O)N3C(C(=O)[O-])=C(C[n+]4ccc(-c5ncon5)cc4)CS[C@H]23)cs1 [Ex. 17, 7β-[2-(2-aminothiazol-4-yl)-2-syn-hydroxyiminoacetamido]-3-[4-(1,2,4-oxadiazol-3-yl)pyridinio]methyl-3-cephem-4-carboxylate]	0.39 µg/mL (≈ 0.738 µM)	0.39 µg/mL (≈ 0.738 µM)	0.1 µg/mL (≈ 0.189 µM)	0.78 µg/mL (≈ 1.48 µM)	3.13 µg/mL (≈ 5.92 µM)	6.25 µg/mL (≈ 11.8 µM)	0.39 µg/mL (≈ 0.738 µM)	3.13 µg/mL (≈ 5.92 µM)	0.78 µg/mL (≈ 1.48 µM)	0.78 µg/mL (≈ 1.48 µM)	0.2 µg/mL (≈ 0.378 µM)	50 µg/mL (≈ 94.6 µM)	0.39 µg/mL (≈ 0.738 µM)	0.2 µg/mL (≈ 0.378 µM)	> 100 µg/mL	3.13 µg/mL (≈ 5.92 µM)	> 100 µg/mL	0.39 µg/mL (≈ 0.738 µM)	0.78 µg/mL (≈ 1.48 µM)	0.39 µg/mL (≈ 0.738 µM)	MIC (P. aeruginosa AKR17): > 100 µg/mL; MIC (S. aureus 167): 6.25 µg/mL (≈ 11.8 µM); MIC (B. subtilis ATCC 6633): 0.39 µg/mL (≈ 0.738 µM); MIC (P. vulugaris OX-19): 0.39 µg/mL (≈ 0.738 µM); MIC (A. calcoaceticos T59): 12.5 µg/mL (≈ 23.7 µM)
Nc1nc(/C(=N/O)C(=O)N[C@@H]2C(=O)N3C(C(=O)[O-])=C(C[n+]4ccc(-c5ncno5)cc4)CS[C@H]23)ns1 [Ex. 6, 7β-[2-(5-amino-1,2,4-thiadiazol-3-yl)-2-syn-hydroxyiminoacetamido]-3-[4-(1,2,4-oxadiazol-5-yl)pyridinio]methyl-3-cephem-4-carboxylate]	0.78 µg/mL (≈ 1.47 µM)	0.39 µg/mL (≈ 0.737 µM)	0.1 µg/mL (≈ 0.189 µM)	1.56 µg/mL (≈ 2.95 µM)	3.13 µg/mL (≈ 5.91 µM)	6.25 µg/mL (≈ 11.8 µM)	0.78 µg/mL (≈ 1.47 µM)	0.78 µg/mL (≈ 1.47 µM)	1.56 µg/mL (≈ 2.95 µM)	1.56 µg/mL (≈ 2.95 µM)	0.39 µg/mL (≈ 0.737 µM)	50 µg/mL (≈ 94.4 µM)	0.78 µg/mL (≈ 1.47 µM)	0.39 µg/mL (≈ 0.737 µM)	> 100 µg/mL	6.25 µg/mL (≈ 11.8 µM)	> 100 µg/mL	0.78 µg/mL (≈ 1.47 µM)	0.78 µg/mL (≈ 1.47 µM)	0.78 µg/mL (≈ 1.47 µM)	MIC (P. aeruginosa AKR17): > 100 µg/mL; MIC (S. aureus 167): 12.5 µg/mL (≈ 23.6 µM); MIC (B. subtilis ATCC 6633): 0.39 µg/mL (≈ 0.737 µM); MIC (P. vulugaris OX-19): 1.56 µg/mL (≈ 2.95 µM); MIC (A. calcoaceticos T59): 6.25 µg/mL (≈ 11.8 µM)
